Experimental data as given in article PMC3254257 (Bioconjugate Chemistry, 2011).

Tests used:
Aqueous solubility = type: physicochemical; settings: water
Stability in serum = type: in vitro ADME, bovine; settings: 37°C; for relative serum stability: 100% FBS, 10 h
[1] = Tetrazine cycloaddition kinetics with norbornene; type: physicochemical; settings: PBS pH 7.4, 37°C, 5% DMSO, excess NB
[2] = Tetrazine cycloaddition kinetics with TCO; type: physicochemical; settings: among tetrazines of this study

Row | aqueous solubility (Aqueous solubility) | time to formation of a precipitate in FBS (Stability in serum; FBS, serum stability could not be measured) [h] | relative serum stability (Stability in serum) | Structure (SMILES) | cycloaddition kinetics with NB compared to hydrogen substituted tetrazine 1 [1] | relative cycloaddition kinetics with TCO [2]
1 | not soluble to any measurable amount |  |  | c1ccc(-c2nnc(-c3ccccc3)nn2)cc1 [3,6-diphenyl tetrazine, reference compound] |  | 
2 |  | 1.5 to 2 |  | Cl.NCc1ccc(-c2nnc(-c3ccccn3)nn2)cc1 [Tetrazine 3, (4-(6-(Pyridin-2-yl)-1,2,4,5-tetrazin-3-yl)phenyl)methanamine hydrochloride] |  | 
3 |  |  | least stable | Cl.NCc1ccc(-c2nnc(-c3ncccn3)nn2)cc1 [Tetrazine 4, (4-(6-(Pyrimidin-2-yl)-1,2,4,5-tetrazin-3-yl)phenyl)methanamine hydrochloride] | faster kinetics | 
4 | extremely water soluble |  | best serum stability | Cc1nnc(CCCCCN)nn1.Cl [Tetrazine 6, 5-(6-Methyl-1,2,4,5-tetrazin-3-yl)pentan-1-amine hydrochloride] | slower cycloaddition reactions | slowest reaction kinetics
